US20080261984A1, “Use of S,S-Reboxetine in the Treatment of Pain” (Pfizer Inc., priority 2004, published 2008)

Tests used:
[1] = system: anticholinergic binding; conditions: different animal models; cited from earlier work
[2] = system: monoamine oxidase (MAO); conditions: cited from earlier work
[3] = in vivo; cited from earlier work
[4] = treatment of pain in patients who do not respond to alpha-2-delta ligands such as gabapentin (PHN study); conditions: human, in vivo
Method: The following study is carried out to assess the efficacy of (S,S)-reboxetine in the treatment of patients with post-herpetic neuralgia (PHN) who fail to respond to gabapentin (GBP) treatment.
Study Population Male or female patients aged 18 years or older, with pain present more than 3 months after healing of the Herpes Zoster skin rash and who are also GBP treatment failures. No upper limit on the duration of PHN is imposed. GBP failures are defined as either: […]
Those patients who show no or minimal improvement on the Patient Global Impression of Change (PGIC) after treatment with GBP (1800 mg/day) administered for a period of […]
Those who are unable to tolerate doses of GBP less than or equal to 1800 mg/day.
Study Design Randomized, double-blind, placebo-controlled, 2-treatment (placebo and active), age-stratified study in patients aged 18 years or older, who suffer from PHN. The study is comprised of 3 phases: (i) 7-weeks screening including 4-weeks GBP treatment, (ii) 5-weeks randomized treatment, and (iii) 1-week follow-up period.
All patients who meet entry criteria initially enter a 1-week run-in period during which a daily pain diary will be maintained. Thereafter, if the severity of pain meets relevant criteria for inclusion in the study, patients enter a 4-week period during which they will receive GBP treatment. […]

[5] = target: dopamine reuptake (Homo sapiens, UniProt Q01959); conditions: cited from earlier work
Chain of dopamine reuptake (Q01959 whole entry): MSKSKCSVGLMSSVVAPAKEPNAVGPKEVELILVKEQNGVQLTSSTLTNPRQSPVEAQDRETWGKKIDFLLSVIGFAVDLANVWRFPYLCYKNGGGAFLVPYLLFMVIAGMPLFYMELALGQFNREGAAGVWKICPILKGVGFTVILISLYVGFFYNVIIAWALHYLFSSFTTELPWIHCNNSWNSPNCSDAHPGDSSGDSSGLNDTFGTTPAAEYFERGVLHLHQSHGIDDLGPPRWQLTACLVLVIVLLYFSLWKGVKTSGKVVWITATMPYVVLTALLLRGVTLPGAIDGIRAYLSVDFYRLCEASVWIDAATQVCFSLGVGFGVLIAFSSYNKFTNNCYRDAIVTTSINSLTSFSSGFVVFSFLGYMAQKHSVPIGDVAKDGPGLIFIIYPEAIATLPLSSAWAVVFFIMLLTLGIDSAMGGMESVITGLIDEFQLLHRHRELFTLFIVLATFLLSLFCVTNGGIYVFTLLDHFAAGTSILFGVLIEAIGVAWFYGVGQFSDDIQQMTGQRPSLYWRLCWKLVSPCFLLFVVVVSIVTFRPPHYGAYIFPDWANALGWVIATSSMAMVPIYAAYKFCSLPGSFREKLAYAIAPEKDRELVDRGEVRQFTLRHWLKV

[6] = in vivo; cited from earlier work; remark: listed apart in the source
[7] = patients receiving gabapentin; cited from earlier work
[8] = target: norepinephrine reuptake (Homo sapiens, UniProt P23975); conditions: cited from earlier work
Chain of norepinephrine reuptake (P23975 whole entry): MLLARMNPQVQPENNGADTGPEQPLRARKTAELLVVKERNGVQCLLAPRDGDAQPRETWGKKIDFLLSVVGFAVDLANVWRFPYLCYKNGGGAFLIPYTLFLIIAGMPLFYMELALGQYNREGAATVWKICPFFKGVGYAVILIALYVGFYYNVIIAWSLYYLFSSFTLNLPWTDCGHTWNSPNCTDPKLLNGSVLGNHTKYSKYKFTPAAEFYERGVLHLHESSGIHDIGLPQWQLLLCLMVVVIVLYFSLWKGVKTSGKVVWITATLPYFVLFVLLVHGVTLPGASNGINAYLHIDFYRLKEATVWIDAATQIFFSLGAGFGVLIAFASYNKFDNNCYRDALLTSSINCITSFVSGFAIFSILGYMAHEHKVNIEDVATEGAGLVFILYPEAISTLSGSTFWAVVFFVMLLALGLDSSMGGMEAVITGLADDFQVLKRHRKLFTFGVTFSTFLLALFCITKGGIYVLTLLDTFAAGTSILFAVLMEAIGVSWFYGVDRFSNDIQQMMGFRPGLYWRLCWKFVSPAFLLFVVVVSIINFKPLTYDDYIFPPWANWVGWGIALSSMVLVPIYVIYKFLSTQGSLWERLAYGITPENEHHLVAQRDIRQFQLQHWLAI

CCOc1ccccc1OC(c1ccccc1)C1CNCCO1 (racemic) [reboxetine, (RR, SS)-2-[α-(2-ethoxyphenoxy)benzyl]morpholine]
anticholinergic binding activity [1]: no anticholinergic binding activity | monoamine oxidase (MAO) inhibitory activity [2]: substantially devoid | effect in the 8-OH-DPAT hypothermia test [3]: ineffective

CCOc1ccccc1O[C@@H](c1ccccc1)[C@@H]1CNCCO1 [(S,S)-reboxetine]
efficacy in treating pain in patients who do not respond to alpha-2-delta ligands [4]: efficacious | dopamine reuptake inhibitory activity [5]: no

NCC1(CC(=O)O)CCCCC1 [gabapentin, 1-(aminomethyl)-cyclohexylacetic acid]
efficacy in the treatment of painful diabetic neuropathy [6]: efficacious | patients noting at least a moderate improvement (score of 1 or 2) on the Patient Global Impression of Change [7]: Approximately 60%

COc1ccc(C(CN(C)C)C2(O)CCCCC2)cc1 (stereo not drawn) [venlafaxine]
norepinephrine reuptake inhibitory activity [8]: potent inhibitor | dopamine reuptake inhibitory activity [5]: weak inhibitor
